Reference: patent publication US7786308B2 (priority 2005, dated 2010)
Where two headings read alike, the source gives them in different places.

How the values were obtained:
Assay in all cases: cell-based
M1 muscarinic receptor = target: T1, M1 muscarinic receptor (Homo sapiens, UniProt P11229); conditions: for Emax: read-out: M1 Efficacy
T1 construct: expressed in transfected cells; host or cells: CHO (M1-CHO)
T1 sequence (P11229 1-460): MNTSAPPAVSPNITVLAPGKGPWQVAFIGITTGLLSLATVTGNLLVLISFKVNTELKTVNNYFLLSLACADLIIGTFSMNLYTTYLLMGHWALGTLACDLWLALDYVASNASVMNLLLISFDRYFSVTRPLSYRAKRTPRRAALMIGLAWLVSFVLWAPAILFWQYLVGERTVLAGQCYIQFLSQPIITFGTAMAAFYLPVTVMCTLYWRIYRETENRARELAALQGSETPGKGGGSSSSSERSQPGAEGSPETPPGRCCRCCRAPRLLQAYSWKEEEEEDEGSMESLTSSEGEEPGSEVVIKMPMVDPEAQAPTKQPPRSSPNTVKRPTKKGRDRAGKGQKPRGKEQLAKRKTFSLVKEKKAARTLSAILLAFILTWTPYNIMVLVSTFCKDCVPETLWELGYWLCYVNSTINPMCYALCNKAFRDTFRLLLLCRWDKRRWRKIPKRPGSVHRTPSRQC

M2 muscarinic receptor = target: T2, M2 muscarinic receptor (Homo sapiens, UniProt P08172); conditions: for Emax: read-out: M2 Efficacy
T2 construct: expressed in transfected cells; host or cells: CHO (M2-CHO)
T2 sequence (P08172 1-466): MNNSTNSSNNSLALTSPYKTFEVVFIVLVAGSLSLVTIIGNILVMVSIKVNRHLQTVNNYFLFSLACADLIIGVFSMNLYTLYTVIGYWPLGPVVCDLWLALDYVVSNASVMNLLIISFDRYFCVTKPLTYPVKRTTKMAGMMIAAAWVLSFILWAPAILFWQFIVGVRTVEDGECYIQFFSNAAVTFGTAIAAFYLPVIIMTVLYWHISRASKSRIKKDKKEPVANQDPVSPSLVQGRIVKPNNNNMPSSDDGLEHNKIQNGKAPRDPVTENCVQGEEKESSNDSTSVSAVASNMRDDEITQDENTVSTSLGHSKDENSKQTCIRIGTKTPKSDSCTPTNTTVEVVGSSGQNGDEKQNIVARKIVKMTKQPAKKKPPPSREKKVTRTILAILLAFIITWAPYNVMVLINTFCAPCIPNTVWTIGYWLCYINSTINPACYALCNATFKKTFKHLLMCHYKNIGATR

M3 muscarinic receptor = target: T3, M3 muscarinic receptor (Homo sapiens, UniProt P20309); conditions: for Emax: read-out: M3 Efficacy
T3 construct: expressed in transfected cells; host or cells: CHO (M3-CHO)
T3 sequence (P20309 whole entry): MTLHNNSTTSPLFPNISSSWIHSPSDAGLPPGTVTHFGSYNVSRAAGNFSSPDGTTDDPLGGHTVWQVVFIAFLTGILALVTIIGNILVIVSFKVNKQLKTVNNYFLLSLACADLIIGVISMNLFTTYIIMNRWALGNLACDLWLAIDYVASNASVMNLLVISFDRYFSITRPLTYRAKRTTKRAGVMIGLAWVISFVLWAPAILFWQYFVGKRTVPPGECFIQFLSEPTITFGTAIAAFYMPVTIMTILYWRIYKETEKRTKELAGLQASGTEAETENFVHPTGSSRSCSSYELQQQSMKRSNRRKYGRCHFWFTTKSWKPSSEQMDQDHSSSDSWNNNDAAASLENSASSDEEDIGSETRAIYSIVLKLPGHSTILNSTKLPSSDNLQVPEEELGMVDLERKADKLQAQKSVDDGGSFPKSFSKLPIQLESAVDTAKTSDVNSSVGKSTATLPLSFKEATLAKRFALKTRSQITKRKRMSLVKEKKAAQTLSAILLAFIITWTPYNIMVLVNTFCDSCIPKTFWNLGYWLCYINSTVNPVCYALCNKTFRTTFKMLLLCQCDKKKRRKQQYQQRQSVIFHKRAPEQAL

M4 muscarinic receptor = target: T4, M4 muscarinic receptor (Homo sapiens, UniProt P08173); conditions: for Emax: read-out: M4 Efficacy
T4 construct: expressed in transfected cells; host or cells: CHO (M4-CHO)
T4 sequence (P08173 1-479): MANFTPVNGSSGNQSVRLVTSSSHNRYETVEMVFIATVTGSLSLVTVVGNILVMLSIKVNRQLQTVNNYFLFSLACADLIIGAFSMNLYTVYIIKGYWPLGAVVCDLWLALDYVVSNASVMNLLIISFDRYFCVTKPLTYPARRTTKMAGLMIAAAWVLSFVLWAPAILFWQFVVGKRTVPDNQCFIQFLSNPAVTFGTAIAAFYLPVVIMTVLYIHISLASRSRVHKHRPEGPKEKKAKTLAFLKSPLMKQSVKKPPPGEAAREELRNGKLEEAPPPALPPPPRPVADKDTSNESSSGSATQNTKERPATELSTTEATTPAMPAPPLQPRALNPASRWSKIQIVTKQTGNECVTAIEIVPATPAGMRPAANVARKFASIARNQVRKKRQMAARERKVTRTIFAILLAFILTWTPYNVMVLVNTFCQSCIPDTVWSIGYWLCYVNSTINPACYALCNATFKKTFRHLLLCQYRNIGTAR

| Structure (SMILES) | EC50 (M1 muscarinic receptor) [µM] | Emax (M1 muscarinic receptor) [%] | EC50 (M2 muscarinic receptor) [µM] | Emax (M2 muscarinic receptor) [%] | EC50 (M3 muscarinic receptor) [µM] | Emax (M3 muscarinic receptor) [%] | EC50 (M4 muscarinic receptor) [µM] | Emax (M4 muscarinic receptor) [%] | EC50 (M1 muscarinic receptor; read-out: M1 Activity) [µM] | EC50 (M2 muscarinic receptor; read-out: M2 Activity) [µM] | EC50 (M3 muscarinic receptor; read-out: M3 Activity) [µM] | EC50 (M4 muscarinic receptor; read-out: M4 Activity) [µM] | M1 Efficacy (M1 muscarinic receptor) | M2 Efficacy (M2 muscarinic receptor) | M3 Efficacy (M3 muscarinic receptor) | M4 Efficacy (M4 muscarinic receptor) |
| --- | --- | --- | --- | --- | --- | --- | --- | --- | --- | --- | --- | --- | --- | --- | --- | --- |
| CCOC(=O)N1C2CCC1CC(N1CCC(N(C)c3ccc(F)cc3)CC1)C2 (stereo not drawn) [Compound 9] | > 5 | 25 to 100 | > 5 | < 25 | > 5 | < 25 | > 5 | 25 to 100 | – | – | – | – | – | – | – | – |
| CCOC(=O)N1C2CCC1CC(N1CCC(N(C(C)=O)C3CCCC3)CC1)C2 (stereo not drawn) [Compound 15] | < 2 | 25 to 100 | < 2 | 25 to 100 | 2 to 5 | 25 to 100 | < 2 | 25 to 100 | – | – | – | – | – | – | – | – |
| CCCN(C1CCN(C2CC3CCC(C2)N3C(=O)OCC)CC1)S(=O)(=O)c1ccc(C(F)(F)F)cc1 (stereo not drawn) [Compound 19] | > 5 | < 25 | > 5 | < 25 | > 5 | < 25 | > 5 | < 25 | – | – | – | – | – | – | – | – |
| CCOC(=O)N1C2CCC1CC(N1CCC(N(CC(=O)CC)c3ccc(F)cc3)CC1)C2 (stereo not drawn) [Compound 20] | < 2 | 25 to 100 | > 5 | < 25 | > 5 | < 25 | > 5 | < 25 | – | – | – | – | – | – | – | – |
| CCOC(=O)N1C2CCC1CC(N1CCC(N(CC(=O)CC)c3ccc(F)cc3)CC1)C2 (stereo not drawn) [Compound 25] | – | – | – | – | – | – | – | – | < 2 | > 5 | > 5 | > 5 | – | – | – | – |
| CCOC(=O)N1C2CCC1CC(N1CCC(N(C)c3ccccc3)CC1)C2 (stereo not drawn) [Compound 27] | < 2 | 25 to 100 | > 5 | < 25 | > 5 | < 25 | > 5 | < 25 | – | – | – | – | – | – | – | – |
| CCOC(=O)N1C2CCC1CC(N1CCC(N(CC(C)C)S(=O)(=O)c3ccc(C(F)(F)F)cc3)CC1)C2 (stereo not drawn) [Compound 28] | > 5 | < 25 | > 5 | < 25 | > 5 | < 25 | > 5 | < 25 | – | – | – | – | – | – | – | – |
| CCOC(=O)N1C2CCC1CC(N1CCC(N(Cc3ccccc3)C(C)=O)CC1)C2 (stereo not drawn) [Compound 35] | < 2 | 25 to 100 | > 5 | 25 to 100 | > 5 | 25 to 100 | 2 to 5 | 25 to 100 | – | – | – | – | – | – | – | – |
| CCOC(=O)N1C2CCC1CC(N1CCC(N(CC)c3ccccc3)CC1)C2 (stereo not drawn) [Compound 37, 3-[4-(ethyl-phenyl-amino)-piperidin-1-yl]-8-azabicyclo[3.2.1]octane-8-carboxylic acid ethyl ester] | < 2 | 25 to 100 | > 5 | < 25 | > 5 | < 25 | < 2 | < 25 | – | – | – | – | – | – | – | – |
| CCOC(=O)N1C2CCC1CC(N1CCC(N(C(C)=O)C(C)C)CC1)C2 (stereo not drawn) [Compound 60] | 2 to 5 | 25 to 100 | > 5 | < 25 | > 5 | < 25 | > 5 | < 25 | – | – | – | – | – | – | – | – |
| CCOC(=O)N1C2CCC1CC(N1CCC(N(C(C)=O)C3CCCCC3)CC1)C2 (stereo not drawn) [Compound 63] | < 2 | 25 to 100 | 2 to 5 | < 25 | 2 to 5 | 25 to 100 | < 2 | 25 to 100 | – | – | – | – | – | – | – | – |
| CCOC(=O)N1C2CCC1CC(N1CCC(Nc3ccc(F)cc3)CC1)C2 (stereo not drawn) [Compound 64, 3-[4-(4-Fluoro-phenylamino)-piperidin-1-yl]-8-aza-bicyclo[3.2.1]octane-8-carboxylic acid ethyl ester] | 2 to 5 | 25 to 100 | > 5 | < 25 | > 5 | < 25 | > 5 | < 25 | – | – | – | – | – | – | – | – |
| CCOC(=O)N1C2CCC1CC(N1CCC(N(c3ccc(F)cc3)S(C)(=O)=O)CC1)C2 (stereo not drawn) [Compound 71, 3-{4-[(4-Fluoro-phenyl)-methanesulfonyl-amino]-piperidin-1-yl}-8-aza-bicyclo[3.2.1]octane-8-carboxylic acid ethyl ester] | < 2 | 25 to 100 | > 5 | < 25 | > 5 | 25 to 100 | 2 to 5 | 25 to 100 | – | – | – | – | – | – | – | – |
| CCOC(=O)N1C2CCC1CC(N1CCC3(CCC(=O)N3c3ccccc3)CC1)C2 (stereo not drawn) [Compound 88, Ethyl 3-(2-oxo-1-phenyl-1,8-diazaspiro[4.5]decan-8-yl)-8-azabicyclo[3.2.1]octane-8-carboxylate] | < 2 | – | < 2 | – | > 5 | – | < 2 | – | – | – | – | – | ++ (key: +++: efficacy was calculated to be greater than 100%; ++: efficacy was calculated to be from 100% to 25%; +: efficacy was calculated to be less than 25%; −: no data was available) | ++ (key: +++: efficacy was calculated to be greater than 100%; ++: efficacy was calculated to be from 100% to 25%; +: efficacy was calculated to be less than 25%; −: no data was available) | + (key: +++: efficacy was calculated to be greater than 100%; ++: efficacy was calculated to be from 100% to 25%; +: efficacy was calculated to be less than 25%; −: no data was available) | ++ (key: +++: efficacy was calculated to be greater than 100%; ++: efficacy was calculated to be from 100% to 25%; +: efficacy was calculated to be less than 25%; −: no data was available) |
